Measured values published in BindingDB's records for doi:10.1074/jbc.M113.514646 (Emory University, 2014).

How the values were obtained:
Assay in all cases: Ligand Binding Assay
Conditions in all cases: pH 8.2; 30 °C
[1] = molecular target: Fatty acid-binding protein 5 (Homo sapiens, UniProt Q01469)
Description: (§1) In brief, both wild-type and mutant hFABP5 were expressed and purified to homogeneity as described above and dialyzed in PBS (pH 8.2). […] Blank measurements obtained from protein-only samples were subtracted at each protein concentration tested to obtain the final values. […] Blanks consisting of 1,8-ANS and fatty acid in the absence of protein were subtracted at each ligand concentration tested. The resulting fluorescence values were used to calculate a Ki value for the fatty acid of interest. Data were collected at 30 °C on a BioTek Synergy plate reader using an excitation filter of 380/20nm and an emission filter of 460/40nmand processed inGraphPad Prism 5.

[2] = molecular target: Fatty acid-binding protein 5 [K24A,R33A,K34A] (Homo sapiens, UniProt Q01469, K24A/K34A/R33A)
Chain of Fatty acid-binding protein 5 [K24A,R33A,K34A] (Q01469 2-135 K24A/R33A/K34A limits assumed): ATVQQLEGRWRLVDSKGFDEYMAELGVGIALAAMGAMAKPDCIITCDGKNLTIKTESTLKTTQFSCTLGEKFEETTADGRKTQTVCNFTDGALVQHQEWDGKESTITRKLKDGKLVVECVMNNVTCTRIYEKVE
Description: as §1

[3] = molecular target: Fatty acid-binding protein 5 [M35A,L60A] (Homo sapiens, UniProt Q01469, L60A/M35A)
Chain of Fatty acid-binding protein 5 [M35A,L60A] (Q01469 2-135 M35A/L60A limits assumed): as the sequence (Q01469 2-135 K24A/R33A/K34A limits assumed) above, with A23K, A32R, A33K, M34A, L59A counted along it
Description: as §1

Chain of Fatty acid-binding protein 5 (Q01469 whole entry): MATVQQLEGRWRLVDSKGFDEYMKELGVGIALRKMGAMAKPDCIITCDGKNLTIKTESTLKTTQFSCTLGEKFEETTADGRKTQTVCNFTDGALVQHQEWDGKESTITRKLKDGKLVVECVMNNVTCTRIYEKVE

Row | Structure (SMILES) | Ki [1] | Ki [2] | Ki [3] | Kd [1] | Kd [2] | Kd [3]
1 | CCCCC/C=C\C/C=C\CCCCCCCC(=O)O | 1260 nM | 2170 nM | 3470 nM |  |  | 
2 | CCCCCC/C=C\CCCCCCCC(=O)O [(9Z)-hexadec-9-enoic acid] | 1360 nM | 1640 nM | 1780 nM |  |  | 
3 | O=S(=O)(O)c1cccc2cccc(Nc3ccccc3)c12 [ANS] |  |  |  | 6570 nM | 12600 nM | 6100 nM
4 | CCCCCCCCN[C@H]1C=C(CO)[C@@H](O)[C@H](O)[C@H]1O [NOEV] | 1100 nM | 1240 nM | 700 nM |  |  | 
5 | CCCCC/C=C\C/C=C\C/C=C\C/C=C\CCCC(=O)O [[1-14C]Arachidonic acid] | 2590 nM | 9370 nM | 5010 nM |  |  | 
